Experimental data published in PubChem BioAssay AID2060606 (Molecular Pharmacology Branch, DTP, NCI, 2025).

Tested on: 922993-354-T-J3-PDC complex spheroids, viability, % test/control
Assay: Anticancer human tumor 922993-354-T-J3-PDC patient-derived endometrial carcinoma cell line growth inhibition [CLK]
Conditions: for IC50: curve of first compound; for viability, T/C: stronger effect = lower value
In short: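 Multi-cell-type spheroids combined patient-derived tumor cells with HUVEC endothelial cells and human mesenchymal stem cells. Paired agents were dosed in half-log steps down from about clinical Cmax, or from 10 microM where Cmax was unknown.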

[1] = second compound 0.0316 µM, first compound 0.0316 µM
[2] = second compound 0.0316 µM, first compound 0.1 µM
[3] = second compound 0.0316 µM, first compound 0.316 µM
[4] = second compound 0.0316 µM, first compound 1 µM
[5] = second compound 0.0316 µM, first compound 3.16 µM
[6] = second compound 0.0316 µM, first compound 10 µM
[7] = second compound 0.1 µM, first compound 0.0316 µM
[8] = second compound 0.1 µM, first compound 0.1 µM
[9] = second compound 0.1 µM, first compound 0.316 µM
[10] = second compound 0.1 µM, first compound 1 µM
[11] = second compound 0.1 µM, first compound 3.16 µM
[12] = second compound 0.1 µM, first compound 10 µM
[13] = second compound 0.316 µM, first compound 0.0316 µM
[14] = second compound 0.316 µM, first compound 0.1 µM
[15] = second compound 0.316 µM, first compound 0.316 µM
[16] = second compound 0.316 µM, first compound 1 µM
[17] = second compound 0.316 µM, first compound 3.16 µM
[18] = second compound 0.316 µM, first compound 10 µM
[19] = second compound 1 µM, first compound 0.0316 µM
[20] = second compound 1 µM, first compound 0.1 µM
[21] = second compound 1 µM, first compound 0.316 µM
[22] = second compound 1 µM, first compound 1 µM
[23] = second compound 1 µM, first compound 3.16 µM
[24] = second compound 1 µM, first compound 10 µM
[25] = second compound 3.16 µM, first compound 0.0316 µM
[26] = second compound 3.16 µM, first compound 0.1 µM
[27] = second compound 3.16 µM, first compound 0.316 µM
[28] = second compound 3.16 µM, first compound 1 µM
[29] = second compound 3.16 µM, first compound 3.16 µM
[30] = second compound 3.16 µM, first compound 10 µM
[31] = second compound 10 µM, first compound 0.0316 µM
[32] = second compound 10 µM, first compound 0.1 µM
[33] = second compound 10 µM, first compound 0.316 µM
[34] = second compound 10 µM, first compound 1 µM
[35] = second compound 10 µM, first compound 3.16 µM
[36] = second compound 10 µM, first compound 10 µM
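Further: spheroids exposed to the agents for 7 days before readout.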

Q: How did the IC50 (second compound 0.0316 µM) turn out when `Nc1ccn(C2OC(CO)C(O)C2(F)F)c(=O)n1` (centres undefined) + CN1CCN(c2cc(C(=O)Nc3cc4cc(-c5cnn(C)c5)ccc4cn3)ccn2)CC1 was run?
A: Its IC50 is less than 0.0316 µM.

Q: What about the IC50 (second compound 0.1 µM) of the same compound?
A: Its IC50 is less than 0.0316 µM.

Q: What about the IC50 (second compound 0.316 µM) of the same compound?
A: Its IC50 is less than 0.0316 µM.

Q: And the IC50 (second compound 1 µM)?
A: Its IC50 is less than 0.0316 µM.

Q: And the IC50 (second compound 3.16 µM)?
A: Its IC50 is less than 0.0316 µM.

Q: What about the IC50 (second compound 10 µM) of the same compound?
A: The IC50 was less than 0.0316 µM.

Q: And the viability, T/C [1]?
A: Its viability, T/C is 20.2%.

Q: And the viability, T/C [2]?
A: Its viability, T/C is 13.4%.

Q: What about the viability, T/C [3] of the same compound?
A: Its viability, T/C is 16.6%.

Q: And the viability, T/C [4]?
A: Its viability, T/C is 15.9%.

Q: What about the viability, T/C [5] of the same compound?
A: The viability, T/C was 16.6%.

Q: What about the viability, T/C [6] of the same compound?
A: Its viability, T/C is 17.2%.

Q: And the viability, T/C [7]?
A: Its viability, T/C is 23.5%.

Q: What about the viability, T/C [8] of the same compound?
A: Its viability, T/C is 16.3%.

Q: What about the viability, T/C [9] of the same compound?
A: The viability, T/C was 15.7%.

Q: And the viability, T/C [10]?
A: Its viability, T/C is 17.2%.

Q: What about the viability, T/C [11] of the same compound?
A: The viability, T/C was 16.9%.

Q: What about the viability, T/C [12] of the same compound?
A: Its viability, T/C is 18.4%.

Q: And the viability, T/C [13]?
A: Its viability, T/C is 14%.

Q: What about the viability, T/C [14] of the same compound?
A: The viability, T/C was 11.3%.

Q: What about the viability, T/C [15] of the same compound?
A: The viability, T/C was 10.3%.

Q: What about the viability, T/C [16] of the same compound?
A: The viability, T/C was 11.6%.

Q: And the viability, T/C [17]?
A: The viability, T/C was 12.5%.

Q: And the viability, T/C [18]?
A: The viability, T/C was 11.5%.

Q: And the viability, T/C [19]?
A: Its viability, T/C is 0.1%.

Q: And the viability, T/C [20]?
A: The viability, T/C was 0.12%.

Q: What about the viability, T/C [21] of the same compound?
A: The viability, T/C was 0.13%.

Q: What about the viability, T/C [22] of the same compound?
A: The viability, T/C was 0.06%.

Q: What about the viability, T/C [23] of the same compound?
A: Its viability, T/C is 1.89%.

Q: And the viability, T/C [24]?
A: Its viability, T/C is 0.07%.

Q: What about the viability, T/C [25] of the same compound?
A: The viability, T/C was 0.11%.

Q: And the viability, T/C [26]?
A: The viability, T/C was 2.53%.

Q: And the viability, T/C [27]?
A: Its viability, T/C is 1.37%.

Q: And the viability, T/C [28]?
A: The viability, T/C was 0.13%.

Q: And the viability, T/C [29]?
A: The viability, T/C was 0.85%.

Q: What about the viability, T/C [30] of the same compound?
A: Its viability, T/C is 2.45%.

Q: What about the viability, T/C [31] of the same compound?
A: Its viability, T/C is 0.16%.

Q: And the viability, T/C [32]?
A: The viability, T/C was 1.71%.

Q: And the viability, T/C [33]?
A: The viability, T/C was 1.82%.

Q: And the viability, T/C [34]?
A: Its viability, T/C is 0.17%.

Q: And the viability, T/C [35]?
A: The viability, T/C was 0.67%.

Q: And the viability, T/C [36]?
A: Its viability, T/C is 1.33%.

Q: With `O=c1[nH]cc(F)c(=O)[nH]1` + CN1CCN(c2cc(C(=O)Nc3cc4cc(-c5cnn(C)c5)ccc4cn3)ccn2)CC1 as the compound, how does the IC50 (second compound 0.0316 µM) read?
A: Its IC50 is 7.95 µM.

Q: What about the IC50 (second compound 0.1 µM) of the same compound?
A: Its IC50 is 4.39 µM.

Q: And the IC50 (second compound 0.316 µM)?
A: Its IC50 is less than 0.0316 µM.

Q: And the IC50 (second compound 1 µM)?
A: The IC50 was less than 0.0316 µM.

Q: What about the IC50 (second compound 3.16 µM) of the same compound?
A: Its IC50 is less than 0.0316 µM.

Q: And the IC50 (second compound 10 µM)?
A: Its IC50 is less than 0.0316 µM.

Q: What about the viability, T/C [1] of the same compound?
A: Its viability, T/C is 104%.

Q: And the viability, T/C [2]?
A: The viability, T/C was 99.5%.

Q: And the viability, T/C [3]?
A: The viability, T/C was 95.2%.

Q: And the viability, T/C [4]?
A: The viability, T/C was 114%.

Q: What about the viability, T/C [5] of the same compound?
A: Its viability, T/C is 65.6%.

Q: And the viability, T/C [6]?
A: The viability, T/C was 46.1%.

Q: What about the viability, T/C [7] of the same compound?
A: The viability, T/C was 102%.

Q: And the viability, T/C [8]?
A: Its viability, T/C is 87.2%.

Q: And the viability, T/C [9]?
A: Its viability, T/C is 94.1%.

Q: What about the viability, T/C [10] of the same compound?
A: Its viability, T/C is 80.5%.

Q: And the viability, T/C [11]?
A: Its viability, T/C is 54.2%.

Q: And the viability, T/C [12]?
A: The viability, T/C was 38.9%.

Q: And the viability, T/C [13]?
A: The viability, T/C was 34.3%.

Q: And the viability, T/C [14]?
A: Its viability, T/C is 34.3%.

Q: And the viability, T/C [15]?
A: The viability, T/C was 33.3%.

Q: What about the viability, T/C [16] of the same compound?
A: The viability, T/C was 31.3%.

Q: What about the viability, T/C [17] of the same compound?
A: Its viability, T/C is 38%.

Q: And the viability, T/C [18]?
A: The viability, T/C was 24.6%.

Q: And the viability, T/C [19]?
A: The viability, T/C was 0.11%.

Q: And the viability, T/C [20]?
A: The viability, T/C was 0.38%.

Q: And the viability, T/C [21]?
A: The viability, T/C was 0.11%.

Q: And the viability, T/C [22]?
A: The viability, T/C was 0.78%.

Q: What about the viability, T/C [23] of the same compound?
A: The viability, T/C was 1.96%.

Q: What about the viability, T/C [24] of the same compound?
A: The viability, T/C was 1.27%.

Q: What about the viability, T/C [25] of the same compound?
A: The viability, T/C was 0.09%.

Q: And the viability, T/C [26]?
A: The viability, T/C was 0.09%.

Q: What about the viability, T/C [27] of the same compound?
A: Its viability, T/C is 1.19%.

Q: What about the viability, T/C [28] of the same compound?
A: Its viability, T/C is 0.76%.

Q: What about the viability, T/C [29] of the same compound?
A: Its viability, T/C is 0.73%.

Q: What about the viability, T/C [30] of the same compound?
A: Its viability, T/C is 2.29%.

Q: And the viability, T/C [31]?
A: Its viability, T/C is 0.09%.

Q: And the viability, T/C [32]?
A: Its viability, T/C is 0.11%.

Q: And the viability, T/C [33]?
A: The viability, T/C was 0.93%.

Q: And the viability, T/C [34]?
A: Its viability, T/C is 0.13%.

Q: And the viability, T/C [35]?
A: The viability, T/C was 2.73%.

Q: What about the viability, T/C [36] of the same compound?
A: Its viability, T/C is 2.68%.
